# Results from US11208376B2, “Use of a metal supplement in animal feed” (Nouryon Chemicals International B.V., priority 2009, dated 2021).
# Marks after values point to notes of the source that are not given here.
# What was measured:
# [1] = Precipitation test of copper sources with two-fold molar excess of phytic acid, soluble Cu by FAAS; type: physicochemical; details: one day at ambient temperature
# Method: The following 3 concentrations of the final metal concentration were tested, i.e. high (H) at 25 mmol/kg, medium (M) at 5 mmol/kg, and low (L) at 0.5 mmol/kg. For each concentration and pH a separate phytic acid stock solution was prepared by diluting the calculated amount of phytic acid with de-mineralized water, setting the pH with diluted NH4OH solutions, and filling up with demineralized water up to the calculated amount. […] The pH was adjusted to 4.97 with 0.5 M H2SO4. Then an equal number of 0.0125 mol/kg solutions were prepared by diluting the above solutions with demineralized water. […] On all 4 zinc-containing and 3 copper-containing solutions in total 6 precipitation tests were carried out, i.e. at levels H, M, and L and for each level at pH=4 and at pH=6. These tests were marked H4, H6, M4, M6, L4, and L6, respectively. In total 42 samples were obtained in this way. After standing for one day the precipitate was removed and the mother liquor was analyzed for its zinc or copper content by FAAS (Flame Atomic Absorption Spectroscopy). […] The total weight was exactly determined again. The 50 ml test tubes were filled according to Table 1 below.
# [2] = Precipitation test of zinc sources with two-fold molar excess of phytic acid, soluble Zn by FAAS; type: physicochemical; details: for Soluble Zn(II) after subjecting complexed or chelated Zn(II) to a two-fold molar excess of phytic acid: one day at ambient temperature
# Method: The following 3 concentrations of the final metal concentration were tested, i.e. high (H) at 25 mmol/kg, medium (M) at 5 mmol/kg, and low (L) at 0.5 mmol/kg. For each concentration and pH a separate phytic acid stock solution was prepared by diluting the calculated amount of phytic acid with de-mineralized water, setting the pH with diluted NH4OH solutions, and filling up with demineralized water up to the calculated amount. […] The pH was not adjusted any further. Then an equal number of 0.0125 mol/kg solutions were prepared by diluting the above solutions with demineralized water. […] On all 4 zinc-containing and 3 copper-containing solutions in total 6 precipitation tests were carried out, i.e. at levels H, M, and L and for each level at pH=4 and at pH=6. These tests were marked H4, H6, M4, M6, L4, and L6, respectively. In total 42 samples were obtained in this way. After standing for one day the precipitate was removed and the mother liquor was analyzed for its zinc or copper content by FAAS (Flame Atomic Absorption Spectroscopy). […] The total weight was exactly determined again. The 50 ml test tubes were filled according to Table 1 below.
# [3] = without the presence of phytate; result in words
# Method: A small excess of 2% of the complexing or chelating agent intake was used to prepare the metal-containing solutions. This ensures a complete complexation or chelation of the metal ions. The mixture was dissolved in part of the demineralized water. The pH was adjusted in order to reach a pH value between approximately 4 and 5. All solutions were filled up with demineralized water to 400 g.
# [4] = H4: pH 4, metal 25 mmol/kg, phytic acid 50 mmol/kg
# [5] = H6: pH 6, metal 25 mmol/kg, phytic acid 50 mmol/kg
# [6] = L4: pH 4, metal 0.5 mmol/kg, phytic acid 1 mmol/kg
# [7] = L6: pH 6, metal 0.5 mmol/kg, phytic acid 1 mmol/kg
# [8] = M4: pH 4, metal 5 mmol/kg, phytic acid 10 mmol/kg
# [9] = M6: pH 6, metal 5 mmol/kg, phytic acid 10 mmol/kg
smiles,measurement,setting,value
O=S(=O)([O-])[O-].[Cu+2] [CuSO4],Soluble Cu(II) after subjecting complexed or chelated Cu(II) to a two-fold molar excess of phytic acid,[1]; [4],64* % (mol/mol)
same,Soluble Cu(II) after subjecting complexed or chelated Cu(II) to a two-fold molar excess of phytic acid,[1]; [5],26* % (mol/mol)
same,Soluble Cu(II) after subjecting complexed or chelated Cu(II) to a two-fold molar excess of phytic acid,[1]; [6],97 % (mol/mol)
same,Soluble Cu(II) after subjecting complexed or chelated Cu(II) to a two-fold molar excess of phytic acid,[1]; [7],80 % (mol/mol)
same,Soluble Cu(II) after subjecting complexed or chelated Cu(II) to a two-fold molar excess of phytic acid,[1]; [8],97* % (mol/mol)
same,Soluble Cu(II) after subjecting complexed or chelated Cu(II) to a two-fold molar excess of phytic acid,[1]; [9],36* % (mol/mol)
CSCC[C@H](N)C(=O)[O-].CSCC[C@H](N)C(=O)[O-].[Zn+2] [Zn(Methionine)2],Soluble Zn(II) after subjecting complexed or chelated Zn(II) to a two-fold molar excess of phytic acid,[2]; [4],21* % (mol/mol)
same,Soluble Zn(II) after subjecting complexed or chelated Zn(II) to a two-fold molar excess of phytic acid,[2]; [5],32* % (mol/mol)
same,Soluble Zn(II) after subjecting complexed or chelated Zn(II) to a two-fold molar excess of phytic acid,[2]; [6],99 % (mol/mol)
same,Soluble Zn(II) after subjecting complexed or chelated Zn(II) to a two-fold molar excess of phytic acid,[2]; [7],63 % (mol/mol)
same,Soluble Zn(II) after subjecting complexed or chelated Zn(II) to a two-fold molar excess of phytic acid,[2]; [8],55* % (mol/mol)
same,Soluble Zn(II) after subjecting complexed or chelated Zn(II) to a two-fold molar excess of phytic acid,[2]; [9],13* % (mol/mol)
same,Appearance (clear solution or precipitate) of zinc source combined with phytic acid,"[2]; levels H, M, L, result in words",immediately a precipitate was formed
CSCC[C@H](N)C(=O)O.[Cu] [copper methionine],Solubility in water,[3],insoluble in water
